Measurements as given in the supplement of paper PMC12137928.
Counter-ions that a name gives are not always drawn.

System: HCT116
Details: 72 h
In short: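 Luminescence was read with CellTiter-Glo in HCT116 cells seeded at 250 per well in 1536-well plates. Signals were scaled between vehicle at 0% and positive control at -100%, then pattern-corrected. IC50 and maximal efficacy were obtained by fitting a four-parameter Hill equation.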

Structure (SMILES) | IC50 cell viability (ICRF193 0 nM) [µM] | IC50 cell viability (ICRF193 200 nM) [µM]
OB1OCc2cc(F)ccc21 [AN-2690] | > 45.8 | > 45.8
N#Cc1ccc(Oc2ccc3c(c2)COB3O)cc1 [AN-2728] | > 45.8 | > 45.8
CN[C@@H]1[C@@H](O[C@H]2O[C@H](CO)[C@@H](N)[C@H](O)[C@H]2O)OC2C[C@@H](N)[C@@H](O[C@H]3[C@H](O)[C@@H](O)[C@H](N)C[C@@H]3N)OC2[C@@H]1O (some centres undefined) [APRAMYCIN SULFATE] | > 45.8 | > 45.8
OCC(O)C(O)C(O)CO (centres undefined) [ARABITOL(D)] | > 45.8 | > 45.8
CCCCCCCCCCCC(=O)OCN1C(=O)CCc2ccc(OCCCCN3CCN(c4cccc(Cl)c4Cl)CC3)cc21 [ARIPIPRAZOLE LAUROXIL] | > 45.8 | > 45.8
Nc1ncnc2c1ncn2[C@@H]1O[C@H](COP(=O)(O)OP(=O)(O)OP(=O)(O)O)[C@@H](O)[C@H]1O [ATP (disodium salt)] | > 45.8 | > 45.8
O=C1N=C(N2CCOCC2)CN1c1ccc(Cl)cc1 [AWD 131-138] | > 45.8 | > 45.8
CC1(C)S[C@@H]2[C@H](NC(=O)[C@H](NC(=O)N3CCNC3=O)c3ccccc3)C(=O)N2[C@H]1C(=O)O [AZLOCILLIN SODIUM] | > 45.8 | > 45.8
CC(=O)O[C@H]1CC[C@@]2(C)C(=CC[C@@H]3[C@@H]2CC[C@]2(C)C(c4cccnc4)=CC[C@@H]32)C1 [Abiraterone acetate] | > 45.8 | > 45.8
NC(=O)c1ncn([C@@H]2O[C@H](CO)[C@@H](O)[C@H]2O)c1N [Acadesine] | > 45.8 | > 45.8
CC(=O)NCCCS(=O)(=O)O [Acamprosate Calcium] | > 45.8 | > 45.8
C[C@H]1O[C@H](O[C@H]2[C@H](O)[C@@H](O)[C@@H](O[C@H]3[C@H](O)[C@@H](O)C(O)O[C@@H]3CO)O[C@@H]2CO)[C@H](O)[C@@H](O)[C@@H]1N[C@H]1C=C(CO)[C@@H](O)[C@H](O)[C@H]1O (some centres undefined) [Acarbose] | > 45.8 | > 45.8
CCCC(=O)Nc1ccc(OCC(O)CNC(C)C)c(C(C)=O)c1 (centres undefined) [Acebutolol hydrochloride] | > 45.8 | > 45.8
O=C(O)COC(=O)Cc1ccccc1Nc1c(Cl)cccc1Cl [Aceclofenac] | > 45.8 | > 45.8
CC(=O)O[C@@H]1C(=O)O[C@H]2[C@@H]1OC(=O)[C@@H]2OC(C)=O [Aceglatone] | > 45.8 | > 45.8
COc1ccc2c(c1)c(CC(=O)OCC(=O)O)c(C)n2C(=O)c1ccc(Cl)cc1 [Acemetacin] | > 45.8 | > 45.8
CC(=O)CC(c1ccc([N+](=O)[O-])cc1)c1c(O)c2ccccc2oc1=O (centres undefined) [Acenocoumarol] | > 45.8 | > 45.8
CC(=O)Nc1ccc(O)cc1 [Acetaminophen] | > 45.8 | > 45.8
CC(=O)Nc1ccccc1 [Acetanilide] | > 45.8 | > 45.8

Structure (SMILES) | IC50 cell viability (ICRF193 0 nM) [µM] | IC50 cell viability (ICRF193 200 nM) [µM]
CC(=O)Nc1cc([As](=O)(O)O)ccc1O [Acetarsol] | > 45.8 | > 45.8
CC(=O)Nc1nnc(S(N)(=O)=O)s1 [Acetazolamide] | > 45.8 | > 45.8
CC(=O)c1ccc(S(=O)(=O)NC(=O)NC2CCCCC2)cc1 [Acetohexamide] | > 45.8 | > 45.8
CC(=O)c1ccc2c(c1)N(CCCN1CCN(CCO)CC1)c1ccccc1S2 [Acetophenazine Maleate] | > 45.8 | > 45.8
CC(=O)c1ccc2c(c1)N(CCCN(C)C)c1ccccc1S2 [Acetopromazine maleate] | > 45.8 | > 45.8
CC(=O)Nc1c(I)cc(I)c(C(=O)O)c1I [Acetrizoic acid] | > 45.8 | > 45.8
CC(=O)OCC[N+](C)(C)C [Acetylcholine chloride] | > 45.8 | > 45.8
CC(=O)N[C@@H](CS)C(=O)O [Acetylcysteine] | > 45.8 | > 45.8
CCC(C(=O)NC(=O)NC(C)=O)c1ccccc1 (centres undefined) [Acetylpheneturide] | > 45.8 | > 45.8
Nc1nc2c(ncn2COCCO)c(=O)[nH]1 [Aciclovir] | > 45.8 | > 45.8
O=C(O)C(=O)Nc1cccc(-c2nnn[nH]2)c1 [Acitazanolast] | > 45.8 | > 45.8
COc1cc(C)c(/C=C/C(C)=C/C=C/C(C)=C/C(=O)O)c(C)c1C [Acitretin] | > 45.8 | > 45.8
O=C(O[C@H]1C[N+]2(CCCOc3ccccc3)CCC1CC2)C(O)(c1cccs1)c1cccs1 [Aclidinium (Bromide)] | > 45.8 | > 45.8
CCN1C[C@]2(COC)[C@H](O)C[C@H](OC)[C@@]34[C@@H]5C[C@@]6(O)[C@H](OC(=O)c7ccccc7)[C@@H]5[C@@](OC(C)=O)([C@@H]([C@H](OC)[C@H]23)[C@@H]14)[C@@H](O)[C@@H]6OC [Aconitine] | > 45.8 | > 45.8
CC(=O)OCC(=O)Nc1cc(C#N)cc(NC(=O)COC(C)=O)c1Cl [Acreozast] | > 45.8 | > 45.8
Cc1ccccc1-n1c(CF)nc2ccc(N)cc2c1=O [Afloqualone] | > 45.8 | > 45.8
CC[C@H]1[C@@H]2C[C@H]3[C@@H]4N(C)c5ccccc5[C@]45C[C@@H]([C@@H]2[C@H]5O)N3[C@@H]1O [Ajmaline] | > 45.8 | > 45.8
C=CCC1=C(C)C(OC(=O)C2C(C=C(C)C)C2(C)C)CC1=O (centres undefined) [Allethrin] | > 45.8 | > 45.8
C=CC[C@]1(O)CC[C@H]2[C@@H]3CCC4=CCCC[C@@H]4[C@H]3CC[C@@]21C [Allylestrenol] | > 45.8 | > 45.8

Now from value to molecule:

IC50 cell viability (ICRF193 0 nM) [µM] | IC50 cell viability (ICRF193 200 nM) [µM] | Structure (SMILES)
> 45.8 | > 45.8 | Cc1ccc(/C(=C\CN2CCCC2)c2cccc(/C=C/C(=O)O)n2)cc1 [Acrivastine]
> 45.8 | > 45.8 | COc1ccc(-c2ccc3cc(C(=O)O)ccc3c2)cc1C12CC3CC(CC(C3)C1)C2 [Adapalene]
> 45.8 | > 45.8 | Nc1[nH]cnc2ncnc1-2 [Adenine]
> 45.8 | > 45.8 | Nc1ncnc2c1ncn2[C@@H]1O[C@H](CO)[C@@H](O)[C@H]1O [Adenosine]
> 45.8 | > 45.8 | O=S(O)CNc1ccc(S(=O)(=O)c2ccc(NCS(=O)O)cc2)cc1 [Adesulfone sodium]
> 45.8 | > 45.8 | CN1CC(O)C2=C/C(=N/NC(N)=O)C(=O)C=C21 (centres undefined) [Adrenochrome semicarbazone]
> 45.8 | > 45.8 | CCCCCCCCCCCCCCCCC(C(=O)O)C(O)(CC(=O)O)C(=O)O (centres undefined) [Agaric acid]
> 45.8 | > 45.8 | COc1ccc2cccc(CCNC(C)=O)c2c1 [Agomelatine]
> 45.8 | > 45.8 | CC(=O)SC[C@@H](C)C(=O)N1CCC[C@H]1C(=O)N[C@@H](Cc1ccccc1)C(=O)O [Alacepril]
> 45.8 | > 45.8 | C[C@H](N)C(=O)N[C@@H](C)C(=O)N[C@H]1[C@@H]2CN(c3nc4c(cc3F)c(=O)c(C(=O)O)cn4-c3ccc(F)cc3F)C[C@@H]21 [Alatrofloxacin mesylate]
> 45.8 | > 45.8 | C=CCOc1ccc(CC(=O)O)cc1Cl [Alclofenac]
> 45.8 | > 45.8 | CCC(=O)OCC(=O)[C@@]1(OC(=O)CC)[C@H](C)C[C@H]2[C@H]3[C@H]([C@@H](O)C[C@@]21C)[C@@]1(C)C=CC(=O)C=C1C[C@H]3Cl [Alclometasone dipropionate]
> 45.8 | > 45.8 | C=CC[N@@+]12CC[C@@]34c5ccccc5N5/C=C6/[C@H]7C[C@H]8[C@@]9(CC[N@@+]8(CC=C)C/C7=C/CO)c7ccccc7N(/C=C(/[C@@H](C[C@@H]31)/C(=C\CO)C2)[C@H]54)[C@@H]69 [Alcuronium chloride]
> 45.8 | > 45.8 | CCc1cc2c(cc1N1CCC(N3CCOCC3)CC1)C(C)(C)c1[nH]c3cc(C#N)ccc3c1C2=O [Alectinib]
> 45.8 | > 45.8 | COc1cc2nc(N(C)CCCNC(=O)C3CCCO3)nc(N)c2cc1OC (centres undefined) [Alfuzosin hydrochloride]
> 45.8 | > 45.8 | Cc1ccccc1C(=O)N1CC/C(=N\OS(=O)(=O)O)c2ccc(Cl)cc21 [Alilusem potassium]
> 45.8 | > 45.8 | COCCCOc1cc(C[C@@H](C[C@H](N)[C@@H](O)C[C@H](C(=O)NCC(C)(C)C(N)=O)C(C)C)C(C)C)ccc1OC [Aliskiren hemifumarate]
> 45.8 | > 45.8 | NC(=O)NC1NC(=O)NC1=O (centres undefined) [Allantoin]
> 45.8 | > 45.8 | C=CCOc1cc(Cl)ccc1C(=O)NCCN(CC)CC [Alloclamide]
> 45.8 | > 45.8 | Oc1ncnc2[nH]ncc12 [Allopurinol]
> 45.8 | > 45.8 | C=CCNC(N)=S [Allylthiourea]
> 45.8 | > 45.8 | CN(C)CCc1c[nH]c2ccc(CS(=O)(=O)N3CCCC3)cc12 [Almotriptan]
> 45.8 | > 45.8 | Cc1[nH]cnc1CN1CCc2c(c3ccccc3n2C)C1=O [Alosetron hydrochloride]
> 45.8 | > 45.8 | C=CCc1ccccc1OCC(O)CNC(C)C (centres undefined) [Alprenolol]
